Experimental data published in publication PMC5218480 (PLoS ONE, 2017).

Test system: MV-4-11 cells
Test: Gene expression microarray analysis (Affymetrix PrimeView) and GSEA
Format: cell-based, human
Parameters: RFU PODN (11730768_x_at) / Fold change /veh PODN (11730768_x_at) / RFU LINC00158 (11744669_a_at) / Fold change /veh LINC00158 (11744669_a_at) / RFU DUSP10 (11751237_a_at) / Fold change /veh DUSP10 (11751237_a_at) / RFU ID3 (11757404_x_at) / Fold change /veh ID3 (11757404_x_at) / RFU PLEKHG5 (11737974_s_at) / Fold change /veh PLEKHG5 (11737974_s_at) / RFU LRRC4B (11730491_at) / Fold change /veh LRRC4B (11730491_at) / RFU GIMAP4 (11747438_a_at) / Fold change /veh GIMAP4 (11747438_a_at) / RFU KRT8 (11758183_x_at) / Fold change /veh KRT8 (11758183_x_at) / RFU CNN1 (11734310_a_at) / Fold change /veh CNN1 (11734310_a_at) / RFU VPS37D (11726825_at) / Fold change /veh VPS37D (11726825_at) / RFU C10orf10 (11716522_x_at) / Fold change /veh C10orf10 (11716522_x_at) / RFU KIR2DL2 /// KIR2DL4 /// KIR2DL5A /// KIR2DL5B /// KIR2DS1 /// KIR2DS2 /// KIR2DS3 /// KIR2DS4 /// KIR3DL3 /// KIR3DL3 /// KIR3DS1 (11738374_at) / Fold change /veh KIR2DL2 /// KIR2DL4 /// KIR2DL5A /// KIR2DL5B /// KIR2DS1 /// KIR2DS2 /// KIR2DS3 /// KIR2DS4 /// KIR3DL3 /// KIR3DL3 /// KIR3DS1 (11738374_at) / RFU C1QL1 (11718748_at) / Fold change /veh C1QL1 (11718748_at) / RFU TMPRSS4 (11747572_a_at) / Fold change /veh TMPRSS4 (11747572_a_at) / RFU HAMP (11756126_x_at) / Fold change /veh HAMP (11756126_x_at) / RFU RNFT2 (11725882_a_at) / Fold change /veh RNFT2 (11725882_a_at) / RFU NR4A2 (11747474_a_at) / Fold change /veh NR4A2 (11747474_a_at) / RFU ABCC12 (11746883_a_at) / Fold change /veh ABCC12 (11746883_a_at) / RFU TMEM136 (11760407_x_at) / Fold change /veh TMEM136 (11760407_x_at) / RFU CLDN22 /// WWC2 (11732394_at) / Fold change /veh CLDN22 /// WWC2 (11732394_at) / RFU HLA-DPB1 (11760878_x_at) / Fold change /veh HLA-DPB1 (11760878_x_at) / RFU SPINT1 (11716480_a_at) / Fold change /veh SPINT1 (11716480_a_at) / RFU GAP43 (11754022_s_at) / Fold change /veh GAP43 (11754022_s_at) / RFU A4GNT (11735810_at) / Fold change /veh A4GNT (11735810_at) / RFU PRB3 (11715151_x_at) / Fold change /veh PRB3 (11715151_x_at) / RFU TUBB4B (11761932_at) / Fold change /veh TUBB4B (11761932_at) / RFU CAPN14 (11732068_a_at) / Fold change /veh CAPN14 (11732068_a_at) / RFU TMCC2 (11721928_a_at) / Fold change /veh TMCC2 (11721928_a_at) / RFU IRGQ (11745062_a_at) / Fold change /veh IRGQ (11745062_a_at) / RFU FAM174B (11720279_a_at) / Fold change /veh FAM174B (11720279_a_at) / RFU TMPRSS4 (11748680_a_at) / Fold change /veh TMPRSS4 (11748680_a_at) / RFU FAM212B (11763350_a_at) / Fold change /veh FAM212B (11763350_a_at) / RFU PLEKHG5 (11743358_a_at) / Fold change /veh PLEKHG5 (11743358_a_at) / RFU ZSCAN30 (11745921_a_at) / Fold change /veh ZSCAN30 (11745921_a_at) / RFU CMKLR1 (11741424_a_at) / Fold change /veh CMKLR1 (11741424_a_at) / RFU LOC101060620 /// MAPK8IP1 (11723275_at) / Fold change /veh LOC101060620 /// MAPK8IP1 (11723275_at) / RFU SPTSSB (11747773_x_at) / Fold change /veh SPTSSB (11747773_x_at) / RFU PRSS12 (11739890_at) / Fold change /veh PRSS12 (11739890_at) / RFU BIN1 (11741810_x_at) / Fold change /veh BIN1 (11741810_x_at) / RFU WNT11 (11732464_a_at) / Fold change /veh WNT11 (11732464_a_at) / RFU C10orf10 (11716521_a_at) / Fold change /veh C10orf10 (11716521_a_at) / RFU C5orf56 (11738089_at) / Fold change /veh C5orf56 (11738089_at) / RFU CYB561 (11721691_x_at) / Fold change /veh CYB561 (11721691_x_at) / RFU ANKRD19P (11752326_a_at) / Fold change /veh ANKRD19P (11752326_a_at) / RFU OR2T12 /// OR2T33 /// OR2T8 (11738714_s_at) / Fold change /veh OR2T12 /// OR2T33 /// OR2T8 (11738714_s_at) / RFU VCAN (11748164_a_at) / Fold change /veh VCAN (11748164_a_at) / RFU JSRP1 (11732532_at) / Fold change /veh JSRP1 (11732532_at) / RFU KRTAP10-11 (11738290_x_at) / Fold change /veh KRTAP10-11 (11738290_x_at) / RFU MYO3A (11730013_a_at) / Fold change /veh MYO3A (11730013_a_at) / RFU EBF3 (11725865_a_at) / Fold change /veh EBF3 (11725865_a_at) / RFU CAMK2N1 (11719241_x_at) / Fold change /veh CAMK2N1 (11719241_x_at) / RFU C5orf56 (11738088_a_at) / Fold change /veh C5orf56 (11738088_a_at) / RFU OLFML3 (11715873_a_at) / Fold change /veh OLFML3 (11715873_a_at) / RFU LOC100653217 /// NTM (11731650_a_at) / Fold change /veh LOC100653217 /// NTM (11731650_a_at) / RFU MAPK11 (11762145_a_at) / Fold change /veh MAPK11 (11762145_a_at) / RFU FIZ1 (11724087_x_at) / Fold change /veh FIZ1 (11724087_x_at) / RFU OASL (11726364_x_at) / Fold change /veh OASL (11726364_x_at) / RFU SOX15 (11748057_x_at) / Fold change /veh SOX15 (11748057_x_at) / RFU CD79A (11719716_a_at) / Fold change /veh CD79A (11719716_a_at) / RFU HIST1H1D (11736915_at) / Fold change /veh HIST1H1D (11736915_at) / RFU CASKIN2 (11723855_a_at) / Fold change /veh CASKIN2 (11723855_a_at) / RFU LOC730098 (11760151_x_at) / Fold change /veh LOC730098 (11760151_x_at) / RFU OR4N2 (11742367_at) / Fold change /veh OR4N2 (11742367_at) / RFU PRRT2 (11749266_a_at) / Fold change /veh PRRT2 (11749266_a_at) / RFU SNX32 (11753110_a_at) / Fold change /veh SNX32 (11753110_a_at) / RFU CDHR5 (11726645_a_at) / Fold change /veh CDHR5 (11726645_a_at) / RFU RCAN1 (11760418_a_at) / Fold change /veh RCAN1 (11760418_a_at) / RFU FAM167A (11723789_a_at) / Fold change /veh FAM167A (11723789_a_at) / RFU FAM26E (11764081_at) / Fold change /veh FAM26E (11764081_at) / RFU ISYNA1 (11749810_s_at) / Fold change /veh ISYNA1 (11749810_s_at) / RFU ACY1 (11761880_at) / Fold change /veh ACY1 (11761880_at) / RFU 11764098_at / Fold change /veh 11764098_at / RFU SAMD14 (11745864_x_at) / Fold change /veh SAMD14 (11745864_x_at) / RFU NPB (11741838_a_at) / Fold change /veh NPB (11741838_a_at) / RFU TMPRSS6 (11731388_a_at) / Fold change /veh TMPRSS6 (11731388_a_at) / RFU KRTAP10-2 (11738614_at) / Fold change /veh KRTAP10-2 (11738614_at) / RFU ARHGAP8 /// PRR5-ARHGAP8 (11727945_x_at) / Fold change /veh ARHGAP8 /// PRR5-ARHGAP8 (11727945_x_at) / RFU KRTAP5-7 /// NADSYN1 (11734609_at) / Fold change /veh KRTAP5-7 /// NADSYN1 (11734609_at) / RFU RASL12 (11751679_a_at) / Fold change /veh RASL12 (11751679_a_at) / RFU CDKN2B (11736163_a_at) / Fold change /veh CDKN2B (11736163_a_at) / RFU PRF1 (11729649_at) / Fold change /veh PRF1 (11729649_at) / RFU, ZNF638 /// ZNF638-IT1 / Fold change vs veh, ZNF638 /// ZNF638-IT1 / RFU, PANK3 / Fold change vs veh, PANK3 / RFU, SH3YL1 / Fold change vs veh, SH3YL1 / RFU, ZEB2 / Fold change vs veh, ZEB2 / RFU, NRIP1 / Fold change vs veh, NRIP1 / RFU, PTTG1IP / Fold change vs veh, PTTG1IP / RFU, CAPN2 / Fold change vs veh, CAPN2 / RFU, MED14 / Fold change vs veh, MED14 / RFU, SNORA58 / Fold change vs veh, SNORA58 / RFU, C1orf63 / Fold change vs veh, C1orf63 / RFU, LRRFIP1 / Fold change vs veh, LRRFIP1 / RFU, NDUFAF7 / Fold change vs veh, NDUFAF7 / RFU, SLC12A2 / Fold change vs veh, SLC12A2 / RFU, IBTK / Fold change vs veh, IBTK / RFU, ESF1 / Fold change vs veh, ESF1 / Fold change vs veh, TMEM50B / RFU, TAOK1 / Fold change vs veh, TAOK1 / RFU, ACBD3 / Fold change vs veh, ACBD3 / RFU, TMA16 / Fold change vs veh, TMA16 / RFU, RWDD3 / Fold change vs veh, RWDD3 / RFU, BCAT1 / Fold change vs veh, BCAT1 / RFU, EDEM3 / Fold change vs veh, EDEM3 / RFU, TMEM33 / Fold change vs veh, TMEM33 / RFU, WDR75 / Fold change vs veh, WDR75 / RFU, AHCTF1 / Fold change vs veh, AHCTF1 / RFU, TFRC / Fold change vs veh, TFRC / RFU, ZDHHC17 / Fold change vs veh, ZDHHC17 / RFU, NOM1 / Fold change vs veh, NOM1 / RFU, ARL8B / Fold change vs veh, ARL8B / RFU, ZBTB11 / Fold change vs veh, ZBTB11 / RFU, TAMM41 / Fold change vs veh, TAMM41 / RFU, KIAA1704 /// LOC100996395 / Fold change vs veh, KIAA1704 /// LOC100996395 / RFU, ING1 / Fold change vs veh, ING1 / RFU, TRMT61B / Fold change vs veh, TRMT61B / RFU, FUBP3 / Fold change vs veh, FUBP3 / RFU, TP53 / Fold change vs veh, TP53 / RFU, TNKS2 / Fold change vs veh, TNKS2 / RFU, ZFP14 / Fold change vs veh, ZFP14 / RFU, ACTR2 / Fold change vs veh, ACTR2 / RFU, PPP3R1 / Fold change vs veh, PPP3R1 / RFU, PIK3R1 / Fold change vs veh, PIK3R1 / RFU, HNRNPA1 / Fold change vs veh, HNRNPA1 / RFU, RNF170 / Fold change vs veh, RNF170 / RFU, ZNF28 / Fold change vs veh, ZNF28 / RFU, RNGTT / Fold change vs veh, RNGTT / RFU, OGT / Fold change vs veh, OGT / RFU, BRD1 / Fold change vs veh, BRD1 / RFU, MARS / Fold change vs veh, MARS / RFU, ZNF655 / Fold change vs veh, ZNF655 / RFU, FAHD1 / Fold change vs veh, FAHD1 / RFU, BDP1 / Fold change vs veh, BDP1 / RFU, LRRCC1 / Fold change vs veh, LRRCC1 / RFU, ARID1A / Fold change vs veh, ARID1A / RFU, ZNF146 / Fold change vs veh, ZNF146 / RFU, ZNF330 / Fold change vs veh, ZNF330 / RFU, GPN3 / Fold change vs veh, GPN3 / RFU, C9orf123 / Fold change vs veh, C9orf123 / RFU, N4BP2L2 / Fold change vs veh, N4BP2L2 / RFU, ARFIP1 / Fold change vs veh, ARFIP1 / RFU, FAM179B / Fold change vs veh, FAM179B / RFU, BCL10 / Fold change vs veh, BCL10 / RFU, UHRF1BP1L / Fold change vs veh, UHRF1BP1L / RFU, BET1 / Fold change vs veh, BET1 / RFU, CNOT2 / Fold change vs veh, CNOT2 / RFU, ZNF268 / Fold change vs veh, ZNF268 / Fold change vs veh, ZNF507 / RFU, DGCR2 / Fold change vs veh, DGCR2 / RFU, WDSUB1 / Fold change vs veh, WDSUB1 / Fold change vs veh, HSP90B1 /// MIR3652 / RFU, ADSS / Fold change vs veh, ADSS / RFU, GK / Fold change vs veh, GK / RFU, ZNF148 / Fold change vs veh, ZNF148 / RFU, TAF9 / Fold change vs veh, TAF9 / RFU, SLC1A5 / Fold change vs veh, SLC1A5 / RFU, SLMO2 / Fold change vs veh, SLMO2 / RFU, ABCC4 / Fold change vs veh, ABCC4 / RFU, LOC101060439 /// RAP1B / Fold change vs veh, LOC101060439 /// RAP1B / RFU, RFX7 / Fold change vs veh, RFX7 / RFU, GTPBP10 / Fold change vs veh, GTPBP10 / RFU, CNEP1R1 / Fold change vs veh, CNEP1R1 / RFU, BIVM-ERCC5 /// ERCC5 / Fold change vs veh, BIVM-ERCC5 /// ERCC5 / RFU, ILF3 / Fold change vs veh, ILF3 / RFU 11762660_at / Fold change /veh 11762660_at / RFU VCAN (11757783_s_at) / Fold change /veh VCAN (11757783_s_at) / RFU DDX43 (11728927_at) / Fold change /veh DDX43 (11728927_at) / RFU KRT8 (11758188_x_at) / Fold change /veh KRT8 (11758188_x_at) / RFU NKD1 (11759106_at) / Fold change /veh NKD1 (11759106_at) / RFU SRD5A1 (11742802_a_at) / Fold change /veh SRD5A1 (11742802_a_at) / RFU TPSAB1 /// TPSB2 (11721975_s_at) / Fold change /veh TPSAB1 /// TPSB2 (11721975_s_at) / RFU GSTM3 (11746129_a_at) / Fold change /veh GSTM3 (11746129_a_at) / RFU IL23R (11737362_x_at) / Fold change /veh IL23R (11737362_x_at) / RFU TMEM51 (11727254_a_at) / Fold change /veh TMEM51 (11727254_a_at) / RFU PIWIL2 (11732686_x_at) / Fold change /veh PIWIL2 (11732686_x_at) / RFU ORM1 (11744905_x_at) / Fold change /veh ORM1 (11744905_x_at) / RFU CCDC152 (11743942_at) / Fold change /veh CCDC152 (11743942_at) / RFU ECM1 (11717891_a_at) / Fold change /veh ECM1 (11717891_a_at) / RFU IL23R (11748794_a_at) / Fold change /veh IL23R (11748794_a_at) / RFU TNFAIP8L3 (11732012_x_at) / Fold change /veh TNFAIP8L3 (11732012_x_at) / RFU MBOAT4 (11741988_at) / Fold change /veh MBOAT4 (11741988_at) / RFU 11764193_at / Fold change /veh 11764193_at / RFU TMEM53 (11763286_at) / Fold change /veh TMEM53 (11763286_at) / RFU MAGEB2 (11727129_at) / Fold change /veh MAGEB2 (11727129_at) / RFU TMEM200A (11744735_a_at) / Fold change /veh TMEM200A (11744735_a_at) / RFU CCDC152 (11751479_a_at) / Fold change /veh CCDC152 (11751479_a_at) / RFU FAM211A (11726209_a_at) / Fold change /veh FAM211A (11726209_a_at) / RFU RGS16 (11746705_a_at) / Fold change /veh RGS16 (11746705_a_at) / RFU VCAN (11755009_s_at) / Fold change /veh VCAN (11755009_s_at) / RFU RHOB (11743442_s_at) / Fold change /veh RHOB (11743442_s_at) / RFU RGS16 (11720943_a_at) / Fold change /veh RGS16 (11720943_a_at) / RFU RGS16 (11720944_at) / Fold change /veh RGS16 (11720944_at) / RFU, VPS4B / Fold change vs veh, VPS4B / RFU, CREB1 / Fold change vs veh, CREB1 / RFU, DNAJC13 / Fold change vs veh, DNAJC13 / RFU, GNAQ / Fold change vs veh, GNAQ / RFU, CDK5R1 / Fold change vs veh, CDK5R1 / RFU, ZRANB3 / Fold change vs veh, ZRANB3 / RFU, CUL4A / Fold change vs veh, CUL4A / RFU, CCNY / Fold change vs veh, CCNY / RFU, UFL1 / Fold change vs veh, UFL1 / RFU, COG3 / Fold change vs veh, COG3 / RFU, DIAPH2 / Fold change vs veh, DIAPH2 / RFU, SKA2 / Fold change vs veh, SKA2 / RFU, AFF3 / Fold change vs veh, AFF3 / RFU, LMF1 / Fold change vs veh, LMF1 / RFU, IPO11 / Fold change vs veh, IPO11 / RFU, DFFB / Fold change vs veh, DFFB / RFU, FOXP1 / Fold change vs veh, FOXP1 / RFU, CARD8 / Fold change vs veh, CARD8 / RFU, STRN3 / Fold change vs veh, STRN3 / RFU, ADK / Fold change vs veh, ADK / RFU, RASSF2 / Fold change vs veh, RASSF2 / RFU, WIPF1 / Fold change vs veh, WIPF1 / RFU, LARP1B / Fold change vs veh, LARP1B / RFU, RASA1 / Fold change vs veh, RASA1 / RFU, RB1 / Fold change vs veh, RB1 / RFU, PPFIA1 / Fold change vs veh, PPFIA1 / RFU, MAT2A / Fold change vs veh, MAT2A / RFU, CCT5 / Fold change vs veh, CCT5 / RFU, WDR92 / Fold change vs veh, WDR92 / RFU, CUX1 / Fold change vs veh, CUX1 / RFU, TTC7A / Fold change vs veh, TTC7A / RFU, TMEM135 / Fold change vs veh, TMEM135 / RFU, DEPTOR / Fold change vs veh, DEPTOR / RFU, CPM / Fold change vs veh, CPM / RFU, DNAJB6 / Fold change vs veh, DNAJB6 / RFU, CACNA2D3 / Fold change vs veh, CACNA2D3 / RFU, DTX4 / Fold change vs veh, DTX4 / RFU, TFCP2 / Fold change vs veh, TFCP2 / RFU, GMCL1 /// GMCL1P1 / Fold change vs veh, GMCL1 /// GMCL1P1 / RFU, AEBP2 / Fold change vs veh, AEBP2 / RFU, SNHG1 /// SNORD22 /// SNORD25 /// SNORD26 /// SNORD27 /// SNORD28 /// SNORD29 /// SNORD31 / Fold change vs veh, SNHG1 /// SNORD22 /// SNORD25 /// SNORD26 /// SNORD27 /// SNORD28 /// SNORD29 /// SNORD31 / Fold change (Aza/veh), C12orf56 (ProbeSet 11735607_a_at) / Fold change (ACY-1035/veh), C12orf56 (ProbeSet 11735607_a_at) / Fold change (Aza/veh), FGFR1OP (ProbeSet 11751329_s_at) / Fold change (ACY-1035/veh), FGFR1OP (ProbeSet 11751329_s_at) / Fold change (Aza/veh), VPS36 (ProbeSet 11739960_a_at) / Fold change (ACY-1035/veh), VPS36 (ProbeSet 11739960_a_at) / RFU SYPL1 (11715823_x_at) / Fold change /veh SYPL1 (11715823_x_at) / RFU IGFBP7 (11715501_s_at) / Fold change /veh IGFBP7 (11715501_s_at) / RFU REEP3 (11722064_at) / Fold change /veh REEP3 (11722064_at) / RFU IGLL1 (11728026_x_at) / Fold change /veh IGLL1 (11728026_x_at): dose or concentration left out as unconfirmed
Conditions: MV-4-11 cells, 48 hours

Q: How did the “Fold change /veh SNX32 (11753110_a_at)” value turn out when Nc1ccc(-c2cccs2)cc1NC(=O)c1ccc2c(c1)cc(C1CC1)n2CCN1CCOCC1 [ACY-1035] was run?
A: 1.17
